Test results published in patent US20160361418A1, “COMPOSITION FOR PREVENTION OR TREATMENT OF TREATMENT-RESISTANT CANCER” (priority 2014, published 2016).
“Also recorded” adds a separate entry of the source.

Columns and labels:
[1] = tested on: Human glioblastoma astrocytoma U87MG cells; test: ALA-PDT with Lapatinib, cell viability by MTT method; format: cell-based; settings: LED 635 nm 12 J/cm^2
Description: Human glioblastoma astrocytoma U87MG cells (10^6 cells) were suspended in DMEM (2% FBS), and thereafter, 10 mM ALA alone was added to the suspension, or 10 mM ALA was combined with Lapatinib in a concentration from 1 nM to 300 μM, and the combination was then added to the suspension. The obtained mixture was cultured at 37° C. for 4 hours. Thereafter, the cells were irradiated with LED having a peak at 635 nm (12 J/cm^2), and the cell viability was then measured by an MTT method. It is to be noted that the MTT method has the same measurement principle as that of the WST-8 assay, and that this is a colorimetric determination method for measuring an enzymatic activity of reducing MTT to a formazan pigment (violet).

[2] = biological target: T1, ABCG2 (Homo sapiens, UniProt Q9UNQ0); test: Inhibition of transport function of ABCG2 (Hoechst 33342 excretion, Flp-In-293/ABCG2 cells, FACS); format: cell-based; design: expressed in transfected cells; host or cells: Flp-In-293 cells (Flp-In-293/ABCG2), with Flp-In-293/Mock as control; settings: inhibitor 1 nM to 100 μM, 5 μg/mL Hoechst 33342, 90 minutes
T1 sequence (Q9UNQ0 1-655): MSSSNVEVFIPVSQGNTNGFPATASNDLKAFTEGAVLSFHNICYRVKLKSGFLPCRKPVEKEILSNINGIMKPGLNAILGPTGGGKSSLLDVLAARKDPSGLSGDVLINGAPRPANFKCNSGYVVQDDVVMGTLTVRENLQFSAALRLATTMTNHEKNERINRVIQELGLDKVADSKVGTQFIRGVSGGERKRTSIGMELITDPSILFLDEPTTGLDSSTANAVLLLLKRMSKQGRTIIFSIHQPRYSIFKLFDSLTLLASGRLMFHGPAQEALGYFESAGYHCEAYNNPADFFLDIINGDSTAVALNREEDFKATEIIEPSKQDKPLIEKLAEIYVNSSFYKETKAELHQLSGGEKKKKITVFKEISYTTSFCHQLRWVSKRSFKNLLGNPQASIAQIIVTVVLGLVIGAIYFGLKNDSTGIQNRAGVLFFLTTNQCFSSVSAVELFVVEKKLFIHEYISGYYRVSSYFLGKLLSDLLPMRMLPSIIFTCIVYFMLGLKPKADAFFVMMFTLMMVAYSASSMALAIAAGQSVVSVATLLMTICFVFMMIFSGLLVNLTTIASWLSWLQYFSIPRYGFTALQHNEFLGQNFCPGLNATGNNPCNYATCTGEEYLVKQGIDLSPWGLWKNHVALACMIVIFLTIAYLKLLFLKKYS
Description: In the present experiment, using Hoechst 33342 and a plurality of tyrosine kinase inhibitors, an experiment was carried out to screen for an inhibitor of ABCG2.
Specifically, using Erlotinib, Gefitinib, Lapatinib, Imatinib, Nilotinib and Dasatinib as tyrosine kinase inhibitors, and also using an L-type calcium channel inhibitor, Verapamil, as a control, screening was carried out for inhibition of the transport function of ABCG2.
Flp-In-293 cells (Flp-In-293/ABCG2 cells), which express human ABCG2, were cultured together with Hoechst 33342 as a substrate of ABCG2 and the aforementioned tyrosine kinase inhibitors for a certain period of time. Thereafter, the level of Hoechst 33342 accumulated in individual cells was measured using FACS (Beckman Coulter). […] Specific experimental procedures are as follows.
Flp-In-293/Mock and Flp-In-293/ABCG2 were each washed with PBS (phosphate buffered saline) twice, and were then peeled using Trypsin-EDTA. 10^6 cells were suspended in a DMEM medium (2% FBS). Subsequently, 5 μg/mL Hoechst 33342 (Invitrogen) alone was added to the suspension, or 5 μg/mL Hoechst 33342 was combined with various types of inhibitors in concentrations of 1 nM to 100 μM, and the combination was then added to the suspension. The obtained mixture was cultured at 37° C. for 90 minutes. After completion of the culture, the cultured cells were washed with cold PBS (2% FBS), and were then suspended again in cold PBS (2% FBS). Thereafter, intracellular fluorescence intensity was measured using FACS (Beckman Coulter). 50,000 cells were measured for a single measurement. Hoechst 33342 accumulated in the cells was excited with UV laser, the fluorescence at […] was then detected, and the mean fluorescence intensity (MFI) of the fluorescence of the measured cells was then calculated. Based on the obtained results, the inhibitory percentage against ABCG2 was calculated.
The MFI values of Flp-In-293/Mock cells and Flp-In-293/ABCG2 cells upon addition of Hoechst 33342 alone were set at 100% and 0%, respectively. […]

[3] = tested on: Human glioblastoma astrocytoma U87MG cells; test: Intracellular accumulation of PpIX biosynthesized from ALA (FACS fluorescence); format: cell-based; settings: 4 hours; for fluorescence intensity / intracellular accumulation of PpIX: 2 mM ALA with inhibitor 1 nM to 100 μM
Description: Human glioblastoma astrocytoma U87MG cells were cultured together with 2 mM ALA and Lapatinib in various concentrations for 4 hours, and thereafter, the fluorescence intensity (MFI value) of PpIX, which was biosynthesized from ALA and was accumulated in the cells during the culture, was measured using FACS (Beckman Coulter). Specific experimental procedures are as follows.
U87MG cells were washed with PBS twice, and were then peeled using Trypsin-EDTA. 10^6 cells were suspended in a low-serum DMEM medium (2% FBS). Subsequently, 2 mM ALA alone was added to the suspension, or 2 mM ALA was combined with Lapatinib or Gefitinib in a concentration from 1 nM to 100 μM, and the combination was then added to the suspension. Thereafter, the obtained mixture was cultured at 37° C. for 4 hours. After completion of the culture, the cultured cells were washed with cold PBS (2% FBS), and were then suspended again in cold PBS (2% FBS). Thereafter, intracellular fluorescence intensity was measured using FACS (Beckman Coulter). 50,000 cells were measured for a single measurement. PpIX accumulated in the cells was excited with UV laser (325 nm), the fluorescence at 575 nm was then detected, and the mean fluorescence intensity (MFI) of the fluorescence of the measured cells was then calculated. Based on the obtained results, intracellular accumulation of PpIX was relatively calculated, and inhibition of the PpIX transport of ABCG2 by Lapatinib or Gefitinib was estimated.

[4] = tested on: brain tumor cell line A172; test: Photosensitivity of brain tumor cells to ALA-PDT (colony formation assay); format: cell-based; settings: 0.3 mM ALA 4 hours, 405-nm laser light, colonies after 14 days
Description: (§1) The brain tumor cell line A172 (purchased from American Type Culture Collection) was cultured in a D-MEM/F12 culture solution containing no FCS (containing L-glutamine, heparin, B27, EGF, and bFGF). As a result, the cells formed a sphere similar to stem cells. […] The cells, which had grown to a sphere type and a non-sphere type, were treated with trypsin. Subsequently, the cells were each incubated at a density of 1.0×10^6 cells/ml, together with 0.3 mM ALA, for 4 hours, and thereafter, a 405-nm laser light was applied to the cells. After the cells had been further cultured for 7 days, the cell viability was measured by a WST-8 assay in the same manner as that of Example 2.
Moreover, 500 cells were collected from A172 cells, on which ALA-PDT had been performed, and the cells were then seeded on a D-MEM agar medium containing 10% FCS and an antibiotic, followed by performing a culture for 14 days. Thereafter, the cultured cells were treated with Trypan blue containing 10% formalin, so that the cell colonies were immobilized and stained. The number of colonies each consisting of 50 or more cells was counted using a stereoscopic microscope.
In the aforementioned WST-8 assay, the cell viability can be measured based on a reduction reaction using mitochondrial NAD(P)H. On the other hand, in the colony formation assay, the proliferation ability of cells can be measured. […]

[5] = tested on: MD30 cells; test: Photosensitivity of cancer stem cells to ALA-PDT (WST-8 cell viability); format: cell-based, human; settings: sphere type relative to non-sphere type
Description: (§2) Specifically, three types of brain tumor glioma stem cell lines (MD13, MD30, and 157NS cells), which had been isolated and established from brain tumor patients, were used, and an experiment was carried out to verify the photosensitivity of these cells to ALA-PDT. In preparation for the experiment, these cells were first cultured in a D-MEM/F12 culture solution containing 10% fetal calf serum (FCS) and in a D-MEM/F12 culture solution containing no FCS (containing L-glutamine, heparin, B27, EGF, and bFGF), and the shapes of the cells were then examined.
(§3) Brain tumor stem cells (MD13, MD30, and 157NS cells), which had grown to a sphere type and a non-sphere type, were treated with trypsin, and thereafter, the resulting cells were each incubated at a density of 1.0×10^6 cells/ml, together with 0.3 mM ALA, for 4 hours. Thereafter, a 405-nm laser light was applied to the cells. After the cells had been cultured for 7 days, the cell viability was measured according to a viable cell count measurement method (WST-8 assay) using water soluble tetrazolium salts as a coloring reagent.
(§4) The sphere type cells (FIG. 2B) cultured in the D-MEM/F12 culture solution containing no FCS (containing L-glutamine, heparin, B27, EGF, and bFGF) had higher sensitivity to ALA-PDT, than the non-sphere type cells (FIG. 2A) cultured in the D-MEM/F12 culture solution containing 10% FCS.

[6] = tested on: 157NS cells; test: as above; format: cell-based, human; settings: sphere type relative to non-sphere type
Description: as §2, §3, §4

[7] = tested on: MD13 cells; test: as above; format: cell-based, human; settings: sphere type relative to non-sphere type
Description: as §2, §3, §4

[8] = metabolized in a living body; cited from earlier work
[9] = tested on: brain tumor cell line A172; test: Photosensitivity of brain tumor cells to ALA-PDT (WST-8 cell viability); format: cell-based; settings: 0.3 mM ALA 4 hours, 405-nm laser light, WST-8 after 7 days
Description: as §1

[10] = tested on: HeLa cells; test: Multiple-dose ALA-PDT on HeLa cells and therapy-resistant HeLa cells (WST8 cell viability); format: cell-based, human
Description: HeLa cells (human-derived uterine cervix cancer cell line; 1×10^5 cells) were seeded on a 60-mm dish, and then cultured for 24 hours. Thereafter, an anticancer agent was administered to the culture solution. […] The surviving cells (5×10^3 cells) were seeded on a 96-well plate. In the present example, these cells surviving 72 hours after administration of the anticancer agent were used as therapy-resistant cancer.
Twenty-four hours after the seeding of the surviving cells on the 96-well plate, 5-aminolevulinic acid hydrochloride (ALA) was administered to the cells, and the resulting cells were then cultured for 4 hours. Thereafter, 631-nm LED light was applied to the cells to a total dose of 60 J/cm^2, one to three times. In the case of multiple-dose light irradiation, the interval between light irradiations was set at 2 hours. Twenty-four hours after the light irradiation, the resulting cells were washed with PBS twice, and the cell viability was then measured by the WST8 assay.
The longitudinal axis in each figure indicates the percentage of cell viability in the experiment groups, while the cell viability is set at 100% when the experiment was carried out under the same conditions as those described above with the exception that ALA was not administered.

[11] = tested on: Brain tumor stem cells (MD13, MD30, and 157NS cells); test: Photosensitivity of cancer stem cells to ALA-PDT, summary over the three lines; format: cell-based, human; settings: 0.3 mM ALA 4 hours; 405-nm laser light
Description: as §2, §3, §4

[12] = biological target: T1, ABCG2; settings: from earlier publication (Pharm Res. 26(2), 449-458, 2009); cited from earlier work

SMILES: CS(=O)(=O)CCNCc1ccc(-c2ccc3ncnc(Nc4ccc(OCc5cccc(F)c5)c(Cl)c4)c3c2)o1 [Lapatinib, n-[3-chloro-4-[(3-fluorophenyl)methoxy]phenyl]-6-[5-[(2-methylsulfonylethylamino)methyl]-2-furyl]quinazolin-4-amine]
- sensitivity of the cells to LED irradiation ([1]; 10 mM ALA with Lapatinib 1 nM to 300 μM): increased in a concentration-dependent manner
- inhibition of ABCG2 (inhibition of the excretion of Hoechst 33342), comparison among inhibitors [2]: inhibits ABCG2 most strongly
- fluorescence intensity / intracellular accumulation of PpIX [3]: increased
- concentration region in which ABCG2 was significantly inhibited ([3]; 2 mM ALA): ≥ 10 nM

SMILES: NCC(=O)CCC(=O)O [ALA, 5-aminolevulinic acid]
- cells died ([1]; 10 mM ALA alone 4 hours): approximately 50%
- photosensitivity to ALA-PDT of sphere type versus non-sphere type cells (colony-forming ability) [4]: significantly higher photosensitivity than the non-sphere type cells
- ALA-PDT sensitivity [5]: 1.9
- ALA-PDT sensitivity [6]: 1.8
- ALA-PDT sensitivity [7]: 2.4
- time until ALA is excreted from the body [8]: ≤ 48 h
- photosensitivity to ALA-PDT of sphere type versus non-sphere type cells (cell viability) [9]: higher photosensitivity than the non-sphere type cells
- cell viability in relation to the number of light irradiations ([10]; 125 to 250 μM ALA, 631-nm LED total 60 J/cm^2 in one to three irradiations): decreased depending on the number of light irradiations
- ALA concentration at which the cell viability was decreased ([10]; HeLa with no anticancer agent or surviving Adriamycin, Cisplatin, Etoposide or 5-Fluorouracil, 631-nm LED total 60 J/cm^2, 24 hours after): ≥ 125 µM
- sensitivity to ALA-PDT of sphere type cells relative to non-sphere type cells [11]: 2 times

SMILES: C#Cc1cccc(Nc2ncnc3cc(OCCOC)c(OCCOC)cc23)c1 [Erlotinib, N-(3-ethynylphenyl)-6,7-bis(2-methoxyethoxy)-4-quinazolinamine]
- inhibition of ABCG2 (inhibition of the excretion of Hoechst 33342), comparison among inhibitors [2]: ABCG2-inhibitory ability almost equivalent to each other

SMILES: COc1cc2ncnc(Nc3ccc(F)c(Cl)c3)c2cc1OCCCN1CCOCC1 [Gefitinib, N-(3-chloro-4-fluoro-phenyl)-7-methoxy-6-(3-morpholin-4-ylpropoxy)quinazolin-4-amine]
- inhibition of ABCG2 (inhibition of the excretion of Hoechst 33342), comparison among inhibitors [2]: ABCG2-inhibitory ability almost equivalent to each other; also recorded: weaker than that of Lapatinib
- fluorescence intensity / intracellular accumulation of PpIX [3]: intracellular accumulation of PpIX was observed, but the amount of PpIX accumulated was not as large as that in the case of inhibition by Lapatinib
- inhibition of ABCG2 [12]: effectively inhibits ABCG2
